From patent publication US3984432A, “Color photographic recording material” (priority 1973, dated 1976)

What was measured:
[1] = Solubility of coupling agents in tricresyl phosphate (oil) at 20° C (Table A); assay type: physicochemical
[2] = Absorption maximum after colour development in a photographic silver halide layer according to Use Example I; assay type: physicochemical; details: for Abs.max., first of two maxima (subsidiary maximum) / Abs.max., second of two maxima (absorption maximum): pyrazolone coupling agents
Method in brief: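 Coupling agent dispersed in tricresyl phosphate with gelatine at pH 6.5, mixed with silver bromide emulsion and hardener, cast on glass plates and dried at 32° C. Strips exposed to 500 Lux/cm^2 under a step wedge for 2 seconds, then processed at 24° C; absorption maximum read after colour development.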

## CCCCCCCCCCCCOc1cccc(OC(CC)C(=O)Nc2cc(Cl)c(C)c(Cl)c2O)c1 (stereo not shown)
[1]
  Solubility in g per g of tricresyl phosphate: 0.7 g per g of tricresyl phosphate

## CCCCCCCCCCCCOc1cccc(OC(CC)C(=O)Nc2cccc(C(=O)NC3=NN(c4c(Cl)cc(Cl)cc4Cl)C(=O)C3)c2)c1 (stereo not shown)
[1]
  Solubility in g per g of tricresyl phosphate: 0.4 g per g of tricresyl phosphate

## CCC(C)(C)c1ccc(OCC(=O)Nc2cccc(C(=O)NC3=NN(c4c(Cl)cc(Cl)cc4Cl)C(=O)C3)c2)c(C(C)(C)CC)c1
[1]
  Solubility in g per g of tricresyl phosphate: 0.6 g per g of tricresyl phosphate

## CCCCCCCCCCCCCCCc1cccc(OC(CC)C(=O)Nc2cc(Cl)c(C)c(Cl)c2O)c1 (stereo not shown)
[1]
  Solubility in g per g of tricresyl phosphate: 0.7 g per g of tricresyl phosphate

## CCCCCCCCCCCCCCCc1cccc(OC(CC)C(=O)Nc2cccc(C(=O)NC3=NN(c4c(Cl)cc(Cl)cc4Cl)C(=O)C3)c2)c1 (stereo not shown)
[1]
  Solubility in g per g of tricresyl phosphate: 0.3 g per g of tricresyl phosphate

## CCCCOP(=O)(CC(=O)Nc1cccc(NC(=O)CC(=O)c2ccccc2)c1)OCCCC [(109)]
[1]
  Solubility in g per g of tricresyl phosphate: > 5 g per g of tricresyl phosphate
[2]
  Abs.max. (single maximum): 442 nm

## COc1ccc(C(=O)NCCCP(=O)(OC(C)C)OC(C)C)cc1NC(=O)CC(=O)c1ccccc1Cl [(128)]
[1]
  Solubility in g per g of tricresyl phosphate: > 5 g per g of tricresyl phosphate
[2]
  Abs.max. (single maximum): 447 nm

## CCCCC(CC)COP(=O)(CCCNC(=O)c1ccc(Cl)c(NC(=O)CC(=O)C(C)(C)C)c1)OCC(CC)CCCC (stereo not shown) [(135)]
[1]
  Solubility in g per g of tricresyl phosphate: > 5 g per g of tricresyl phosphate
[2]
  Abs.max. (single maximum): 445 nm

## CCCCOP(=O)(CCCOc1cc(OCCCP(=O)(OCCCC)OCCCC)cc(C(=O)Nc2cccc(NC3=NN(c4c(Cl)cc(Cl)cc4Cl)C(=O)C3)c2)c1)OCCCC [(424)]
[2]
  Abs.max., first of two maxima (subsidiary maximum): 427 nm
  Abs.max., second of two maxima (absorption maximum): 532 nm

## CCOP(=O)(CCCOc1cccc(C(=O)Nc2c(C)cc(C)c(N3N=C(Nc4ccc(Cl)cc4)CC3=O)c2C)c1)OCC [(425)]
[2]
  Abs.max., first of two maxima (subsidiary maximum): 430 nm
  Abs.max., second of two maxima (absorption maximum): 530 nm

## CCCCOP(=O)(CCCOc1cccc(C(=O)Nc2c(C)cc(C)c(N3N=C(Nc4ccc(Cl)cc4)CC3=O)c2C)c1)OCCCC [(426)]
[2]
  Abs.max., first of two maxima (subsidiary maximum): 430 nm
  Abs.max., second of two maxima (absorption maximum): 528 nm

## CCCCOP(=O)(CCCOc1cccc(C(=O)Nc2cccc(NC3=NN(c4ccc(S(=O)(=O)N(CC)CC)cc4)C(=O)C3)c2)c1)OCCCC [(427)]
[2]
  Abs.max., first of two maxima (subsidiary maximum): 431 nm
  Abs.max., second of two maxima (absorption maximum): 538 nm

## CCCCOP(=O)(CCCOc1cc(OCCCP(=O)(OCCCC)OCCCC)cc(C(=O)Nc2ccc(Cl)c(NC3=NN(c4c(Cl)cc(Cl)cc4Cl)C(=O)C3)c2)c1)OCCCC [(428)]
[2]
  Abs.max., first of two maxima (subsidiary maximum): 430 nm
  Abs.max., second of two maxima (absorption maximum): 537 nm

## CCCCOP(=O)(CCCOc1cccc(C(=O)Nc2cccc(NC3=NN(c4ccc(S(C)(=O)=O)cc4)C(=O)C3)c2)c1)OCCCC [(429)]
[2]
  Abs.max., first of two maxima (subsidiary maximum): 430 nm
  Abs.max., second of two maxima (absorption maximum): 538 nm

## CCCCOP(=O)(CCCOc1cc(OCCCP(=O)(OCCCC)OCCCC)cc(C(=O)Nc2cccc(NC3=NN(c4ccc(S(C)(=O)=O)cc4)C(=O)C3)c2)c1)OCCCC [(430)]
[2]
  Abs.max., first of two maxima (subsidiary maximum): 430 nm
  Abs.max., second of two maxima (absorption maximum): 540 nm

## CCOP(=O)(CCCOc1cccc(NC(=O)c2ccc3ccccc3c2O)c1)OCC [(601)]
[2]
  Abs.max. (single maximum): 704 nm

## CCCCOP(=O)(CCCOc1cccc(NC(=O)c2ccc3ccccc3c2O)c1)OCCCC [(602)]
[2]
  Abs.max. (single maximum): 706 nm

## CCCCOP(=O)(CCCOc1cc(OCCCP(=O)(OCCCC)OCCCC)cc(C(=O)Nc2cc(Cl)c(C)c(Cl)c2O)c1)OCCCC [(701)]
[2]
  Abs.max. (single maximum): 662 nm

## CCCCCCCCCCCCCCCCCCNS(=O)(=O)c1ccc(N(CCCC)CCCC)c(NC(=O)CC(=O)c2ccccc2)c1 [DT-OS 1,522,414]
[1]
  Solubility in g per g of tricresyl phosphate: 1.2 g per g of tricresyl phosphate

## CCCCCCCCCCOc1cccc(OCCC(=O)Nc2cccc(NC(=O)CC(=O)c3ccccc3C)c2)c1 [DT-OS 2,039,970]
[1]
  Solubility in g per g of tricresyl phosphate: 1 g per g of tricresyl phosphate

## CCC(Oc1ccc(C(C)(C)CC)cc1C(C)(C)CC)C(=O)Nc1cc(Cl)c(C)c(Cl)c1O (stereo not shown) [US-PS 2,801,171 Coupling agent No. (4)]
[1]
  Solubility in g per g of tricresyl phosphate: 0.4 g per g of tricresyl phosphate
